Source: patent US20240247080A1, “GLP1/GIP/NPY2 RECEPTOR TRIPLE AGONISTS” (Boehringer Ingelheim International GmbH, priority 2022, published 2024)
pEC50: −log10 of the molar value. Read-outs that look alike come from different tables or passages of the source. Starred links: 1 amine or outer side, 2 acyl side, 3 side chain; linkers in the order of their positions; H or OH if unused. Non-standard residues stand in square brackets, D forms with d. Groups on a side chain read outwards from the residue. No end group written: not given here. *: point of attachment. C20 diacid = O=C(O)CCCCCCCCCCCCCCCCCCC(=O)*; C18 diacid = O=C(O)CCCCCCCCCCCCCCCCC(=O)*; γGlu = O=C(O)[C@H](CCC(=O)[*:2])N[*:1]; εLys = N[C@@H](CCCCN[*:1])C(=O)[*:2]; Tle = CC(C)(C)[C@H](N)C(=O)O; AEEA = NCCOCCOCC(=O)O; Aib = CC(C)(N)C(=O)O

Tests used:
Format in all cases: cell-based
Conditions in all cases: CreLuc reporter gene assay
hGLP1R = target: T1, hGLP1R (Homo sapiens, UniProt P43220); assay: hGLP1R CreLuc reporter gene assay in 0.5% and 100% plasma
T1 construct: expressed in transfected cells; host or cells: HEK-293 cells carrying a CRE-luciferase reporter gene
Summary of the method: (§1)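 HEK cells (GLP-1R, NPY2R) or CHO cells (GIPR) carrying a CRE-luciferase reporter, incubated 4 h at 37 °C with peptides in HBSS/20 mM HEPES pH 7.4 plus 0.5% human plasma, or in 100% plasma. Luminescence read; EC50 from 8-point variable-slope sigmoid fits.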

hGIPR = target: T2, hGIPR (Homo sapiens, UniProt P48546); assay: hGIPR CreLuc reporter gene assay in 0.5% and 100% plasma
T2 construct: expressed in transfected cells; host or cells: CHO cells carrying a CRE-luciferase reporter gene
T2 sequence (P48546 22-466): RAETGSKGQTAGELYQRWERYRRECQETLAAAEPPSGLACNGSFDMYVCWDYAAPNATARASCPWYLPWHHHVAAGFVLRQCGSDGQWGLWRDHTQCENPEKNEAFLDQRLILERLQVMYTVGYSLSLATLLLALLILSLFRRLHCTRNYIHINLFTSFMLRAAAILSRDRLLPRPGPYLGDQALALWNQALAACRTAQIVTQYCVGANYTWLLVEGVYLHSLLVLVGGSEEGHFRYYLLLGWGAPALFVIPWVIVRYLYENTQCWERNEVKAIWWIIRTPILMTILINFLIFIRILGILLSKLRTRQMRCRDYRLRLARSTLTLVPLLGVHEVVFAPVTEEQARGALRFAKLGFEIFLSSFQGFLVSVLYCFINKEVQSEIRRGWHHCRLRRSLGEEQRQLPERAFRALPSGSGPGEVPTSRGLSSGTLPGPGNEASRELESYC
Summary of the method: as §1

hNPY2R = target: T3, hNPY2R (Homo sapiens, UniProt P49146); assay: hNPY2R CreLuc reporter gene assay in 0.5% and 100% plasma
T3 construct: expressed in transfected cells; host or cells: HEK-293 cells carrying a CRE-luciferase reporter gene
T3 sequence (P49146 1-381): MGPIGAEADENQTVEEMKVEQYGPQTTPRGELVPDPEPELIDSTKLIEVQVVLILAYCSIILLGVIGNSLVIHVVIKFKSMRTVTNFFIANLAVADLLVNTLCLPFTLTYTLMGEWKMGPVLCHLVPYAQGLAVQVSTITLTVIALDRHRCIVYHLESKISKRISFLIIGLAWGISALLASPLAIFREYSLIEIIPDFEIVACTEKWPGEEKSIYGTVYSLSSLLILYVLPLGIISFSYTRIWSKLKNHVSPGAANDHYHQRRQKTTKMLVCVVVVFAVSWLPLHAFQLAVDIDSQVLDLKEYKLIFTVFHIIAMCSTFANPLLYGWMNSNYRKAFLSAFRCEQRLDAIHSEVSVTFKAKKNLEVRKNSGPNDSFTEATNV
Summary of the method: as §1

[1] = 0.5% human plasma, read-out: hGLP1R 0.5% hP
[2] = 100% human plasma, read-out: hGLP1R 100% hP
[3] = 0.5% human plasma, read-out: hGIPR 0.5% hP
[4] = 100% human plasma, read-out: hGIPR 100% hP
[5] = 0.5% human plasma, read-out: hNPY2R 0.5% hP
[6] = 100% human plasma, read-out: hNPY2R 100% hP

T1 sequence (P43220 24-463): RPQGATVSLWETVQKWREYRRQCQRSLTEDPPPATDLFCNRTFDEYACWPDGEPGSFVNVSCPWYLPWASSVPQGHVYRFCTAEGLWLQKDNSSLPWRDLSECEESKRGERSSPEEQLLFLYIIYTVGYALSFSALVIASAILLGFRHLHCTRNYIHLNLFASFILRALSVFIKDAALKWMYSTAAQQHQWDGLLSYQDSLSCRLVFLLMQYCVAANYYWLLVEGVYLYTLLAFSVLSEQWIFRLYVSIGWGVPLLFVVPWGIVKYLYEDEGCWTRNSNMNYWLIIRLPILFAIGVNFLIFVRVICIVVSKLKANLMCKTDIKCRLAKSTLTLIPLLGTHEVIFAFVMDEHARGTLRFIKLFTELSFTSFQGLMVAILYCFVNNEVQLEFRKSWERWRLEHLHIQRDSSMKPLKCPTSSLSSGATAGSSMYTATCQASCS

Row | Substance | pEC50 (hGLP1R; [1]) | pEC50 (hGLP1R; [2]) | pEC50 (hGIPR; [3]) | pEC50 (hGIPR; [4]) | pEC50 (hNPY2R; [5]) | pEC50 (hNPY2R; [6])
1 | Y[Aib]EGTFTSDYSI[Aib]LEKQAQ[Aib]AFVQWLIK([AEEA-AEEA-γGlu-γGlu-γGlu-γGlu-γGlu-C18 diacid])GGPSSGASLRHYYNWLTRQRY-NH2 [Compound 167, Y-Aib-E-G-T-F-T-S-D-Y-S-I-Aib-L-E-K-Q-A-Q-Aib-A-F-V-Q-W-L-I-K(1,3)-GGPSSGASLRHYYNWLTRQRY-NH2.C18DA-gGlu-gGlu-gGlu-gGlu-gGlu-OEG-OEG(1,2)] | 10.40 | 9.09 | 9.85 | 9.31 | 7.98 | 7.58
2 | H-Y[Aib]EGTFTSDYSI[Aib]LEKQAQ[Aib]AFVEWLIK([εLys-γGlu-γGlu-γGlu-γGlu-γGlu-γGlu-C20 diacid])GGPSEPASLRHYYNWLTRQRY-NH2 [Compound 233, Y-Aib-E-G-T-F-T-S-D-Y-S-I-Aib-L-E-K-Q-A-Q-Aib-A-F-V-E-W-L-I-K(1,3)-GGPSEPASLRHYYNWLTRQRY-NH2.C20DA-gGlu-gGlu-gGlu-gGlu-gGlu-gGlu-eLys(1,2)] | 9.77 | 8.77 | 10.10 | 9.12 | 7.90 | –
3 | H-Y[Aib]EGTFTSDYSI[Aib]LEKQAQ[Aib]EFVQWLIK([εLys-γGlu-γGlu-γGlu-γGlu-γGlu-γGlu-γGlu-C20 diacid])GGPSSGASLRHYYNWLTRQRY-NH2 [Compound 43, Y-Aib-E-G-T-F-T-S-D-Y-S-I-Aib-L-E-K-Q-A-Q-Aib-E-F-V-Q-W-L-I-K(1,3)-GGPSSGASLRHYYNWLTRQRY-NH2.C20DA-gGlu-gGlu-gGlu-gGlu-gGlu-gGlu-gGlu-eLys(1,2)] | 9.39 | – | 9.19 | 8.71 | 7.88 | 7.68
4 | H-Y[Aib]EGTFTSDYSI[Aib]LEEQAQ[Aib]AFVEWLIK([εLys-γGlu-γGlu-γGlu-γGlu-C20 diacid])GGPSSGASLRHYYNWLTRQRY-NH2 [Compound 97, Y-Aib-E-G-T-F-T-S-D-Y-S-I-Aib-L-E-E-Q-A-Q-Aib-A-F-V-E-W-L-I-K(1,3)-GGPSSGASLRHYYNWLTRQRY-NH2.C20DA-gGlu-gGlu-gGlu-gGlu-eLys(1,2)] | 9.82 | – | 9.85 | 9.02 | 7.83 | 7.15
5 | H-Y[Aib]EGTFTSDYSI[Aib]LEKQAQ[Aib]AFVEWLIK([εLys-γGlu-γGlu-γGlu-γGlu-γGlu-γGlu-C20 diacid])GGPSSGASLRHYY[Aib]WLTRQRY-NH2 [Compound 213, Y-Aib-E-G-T-F-T-S-D-Y-S-I-Aib-L-E-K-Q-A-Q-Aib-A-F-V-E-W-L-I-K(1,3)-G-G-P-S-S-G-A-S-L-R-H-Y-Y-Aib-W-L-T-R-Q-R-Y-NH2.C20DA-gGlu-gGlu-gGlu-gGlu-gGlu-gGlu-eLys(1,2)] | 9.80 | – | 9.47 | 8.82 | < 7.00 | < 6.00
6 | H-Y[Aib]EGTFTSDYSI[Aib]LEKQAQ[Aib]AFVEWLIK([εLys-γGlu-γGlu-γGlu-γGlu-γGlu-γGlu-C20 diacid])GGPSSGASLRHYYNWLTRQR[Tle]-NH2 [Compound 191, Y-Aib-E-G-T-F-T-S-D-Y-S-I-Aib-L-E-K-Q-A-Q-Aib-A-F-V-E-W-L-I-K(1,3)-GGPSSGASLRHYYNWLTRQR-Tle-NH2.C20DA-gGlu-gGlu-gGlu-gGlu-gGlu-gGlu-eLys(1,2)] | 9.77 | – | 9.64 | 8.70 | < 7.00 | < 6.00
7 | H-Y[Aib]EGTFTSDYSI[Aib]LEKQAQ[Aib]AFVEWLIK([εLys-γGlu-γGlu-γGlu-γGlu-γGlu-γGlu-C20 diacid])GGPSSGASLRHY[Tle]NWLTRQRY-NH2 [Compound 133, Y-Aib-E-G-T-F-T-S-D-Y-S-I-Aib-L-E-K-Q-A-Q-Aib-A-F-V-E-W-L-I-K(1,3)-G-G-P-S-S-G-A-S-L-R-H-Y-Tle-N-W-L-T-R-Q-R-Y-NH2.C20DA-gGlu-gGlu-gGlu-gGlu-gGlu-gGlu-eLys(1,2)] | 9.80 | – | 9.32 | – | 7.85 | –
